In one assay the target is Vasopressin V1b receptor (Homo sapiens, UniProt P47901). The experiment in a line: Late-stage results from the probe development effort to identify antagonists of arginine vasopressin receptor 1a (AVPR1a): fluorescence-based cell-based dose response AVPR1b inhibition counterscreen assay. The format is functional. In general terms: Counterscreens check selectivity or assay interference.

A short description of assay [1]: Late-stage results from the probe development effort to identify antagonists of arginine vasopressin receptor 1a (AVPR1a): fluorescence-based cell-based dose response AVPR1a inhibition assay. Type of assay: functional.
The nature of assay [2]: Late-stage results from the probe development effort to identify antagonists of arginine vasopressin receptor 1a (AVPR1a): luminescence-based cell-based dose response counterscreen assay to determine cytotoxicity of the test compound. The format is functional.
The next assay has as its target Vasopressin V2 receptor (Homo sapiens, UniProt P30518). Put plainly: Late-stage results from the probe development effort to identify antagonists of arginine vasopressin receptor 1a (AVPR1a): fluorescence-based cell-based dose response AVPR2 inhibition counterscreen assay. The format is functional.
A short description of assay [3]: Late-stage results from the probe development effort to identify antagonists of arginine vasopressin receptor 1a (AVPR1a): fluorescence-based cell-based dose response OXTR inhibition counterscreen assay. Type of assay: functional.
The nature of assay [4]: viability loss in A549 lung cells – cell-based, 24 h, CellTiter-Glo luminescence, cherry-picks, cytotoxicity control, dose response (AID 1053115). Type of assay: functional. To be noted: A549, 24 h.
Assay [5] concerns the target Muscarinic acetylcholine receptor M5 (Homo sapiens, UniProt P08912). Put plainly: inhibition of ACh-evoked human M5 signalling – cell-based, CHO-K1 hM5, Fluo-4 calcium flux, ACh EC80, dose response (AID 743110). The format is functional.
Assay [6] has as its target Muscarinic acetylcholine receptor M5 (Rattus norvegicus, UniProt P08911). Put plainly: Discovery of Novel Antagonists of Muscarinic Receptor M5: Counterscreen against RAT M5. The format is functional.
The nature of assay [7]: Dd2 parasite growth inhibition in erythrocytes – SYBR Green, dry powder samples, set 9, dose response (AID 1159568). Type of assay: functional, cell-based.
The nature of assay [8]: antimalarial activity against Dd2 parasites – SYBR Green fluorescence, erythrocytes, dry powder, set 2, dose response (AID 1159574). The format is functional, cell-based.
Assay [9] deals with G-protein coupled receptor 183 (Homo sapiens, UniProt P32249). The experiment in a line: SAR confirmation of small molecule antagonists of the EBI2 receptor via a luminescent beta-arrestin assa. Type of assay: functional.
Assay [10] addresses RNA-editing ligase 1, mitochondrial (Trypanosoma brucei brucei, UniProt P86926). The experiment in a line: inhibition of trypanosome RNA editing ligase – biochemical, fluorescence, Trypanosoma brucei, dose response (AID 1117295). Type of assay: functional.
A short description of assay [11]: Dd2 parasite growth inhibition in erythrocytes – SYBR Green, dry powder samples, set 4, dose response (AID 1159572). The format is functional, cell-based.

By IC50 is commonly meant the point on the concentration scale where inhibition reaches its midpoint. As a reminder, the CC50 is the concentration giving 50% cytotoxicity. A word on the AC50: it is the concentration giving half of the maximal activity seen.

Activity calls are given as the source filed them. Unless noted, the calls are words filed in the database; no cut-off is given here. Where only a bound is given, the exact number is not on record here.

Chain of G-protein coupled receptor 183 (P32249 whole entry): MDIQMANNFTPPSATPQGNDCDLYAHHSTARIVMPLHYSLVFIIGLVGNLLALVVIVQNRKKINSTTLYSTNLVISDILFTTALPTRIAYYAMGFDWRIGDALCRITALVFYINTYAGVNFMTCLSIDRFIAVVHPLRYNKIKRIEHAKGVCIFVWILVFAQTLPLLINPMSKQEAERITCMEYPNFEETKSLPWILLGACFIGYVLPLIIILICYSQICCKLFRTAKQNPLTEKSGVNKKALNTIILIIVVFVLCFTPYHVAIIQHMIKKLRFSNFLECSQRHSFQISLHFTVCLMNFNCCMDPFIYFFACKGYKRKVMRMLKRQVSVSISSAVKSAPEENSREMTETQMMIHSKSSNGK
Chain of Muscarinic acetylcholine receptor M5 (Rattus norvegicus, UniProt P08911) (P08911 whole entry): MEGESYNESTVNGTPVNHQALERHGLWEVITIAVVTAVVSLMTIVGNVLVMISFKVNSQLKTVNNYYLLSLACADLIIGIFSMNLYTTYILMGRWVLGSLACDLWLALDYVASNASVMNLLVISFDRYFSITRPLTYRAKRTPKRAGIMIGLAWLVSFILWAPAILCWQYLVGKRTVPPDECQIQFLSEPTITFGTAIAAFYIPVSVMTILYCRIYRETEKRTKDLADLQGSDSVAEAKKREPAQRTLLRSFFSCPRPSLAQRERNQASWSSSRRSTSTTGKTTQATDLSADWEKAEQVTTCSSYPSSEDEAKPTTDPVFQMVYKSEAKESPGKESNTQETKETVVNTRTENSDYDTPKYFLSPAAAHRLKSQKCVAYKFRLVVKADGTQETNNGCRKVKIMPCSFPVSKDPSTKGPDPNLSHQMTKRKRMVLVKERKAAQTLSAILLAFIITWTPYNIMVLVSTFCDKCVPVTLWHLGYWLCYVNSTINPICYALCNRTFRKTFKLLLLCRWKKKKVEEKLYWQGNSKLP
Chain of Vasopressin V1b receptor (P47901 whole entry): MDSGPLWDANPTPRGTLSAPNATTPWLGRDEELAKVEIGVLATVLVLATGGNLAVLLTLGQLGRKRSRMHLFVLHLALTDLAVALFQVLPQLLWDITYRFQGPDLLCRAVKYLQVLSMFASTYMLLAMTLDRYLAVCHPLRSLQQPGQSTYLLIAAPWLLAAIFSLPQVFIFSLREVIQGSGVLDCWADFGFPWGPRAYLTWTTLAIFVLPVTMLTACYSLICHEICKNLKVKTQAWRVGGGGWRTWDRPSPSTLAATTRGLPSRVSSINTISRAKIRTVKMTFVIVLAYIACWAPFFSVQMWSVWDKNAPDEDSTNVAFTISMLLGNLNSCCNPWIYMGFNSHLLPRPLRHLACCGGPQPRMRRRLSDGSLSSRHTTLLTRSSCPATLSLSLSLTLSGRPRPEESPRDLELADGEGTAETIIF
Chain of Vasopressin V2 receptor (P30518 whole entry): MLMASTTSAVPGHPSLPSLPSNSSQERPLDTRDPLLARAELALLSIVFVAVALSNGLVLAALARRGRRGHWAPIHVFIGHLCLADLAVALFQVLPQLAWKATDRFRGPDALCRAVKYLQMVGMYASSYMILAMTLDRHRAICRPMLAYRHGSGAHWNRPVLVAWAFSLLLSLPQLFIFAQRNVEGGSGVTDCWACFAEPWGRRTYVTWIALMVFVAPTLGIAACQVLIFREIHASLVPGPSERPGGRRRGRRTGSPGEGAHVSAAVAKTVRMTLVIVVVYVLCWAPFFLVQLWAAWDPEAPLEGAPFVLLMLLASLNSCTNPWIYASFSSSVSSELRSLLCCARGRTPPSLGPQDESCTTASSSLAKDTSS
Chain of Muscarinic acetylcholine receptor M5 (Homo sapiens, UniProt P08912) (P08912 whole entry): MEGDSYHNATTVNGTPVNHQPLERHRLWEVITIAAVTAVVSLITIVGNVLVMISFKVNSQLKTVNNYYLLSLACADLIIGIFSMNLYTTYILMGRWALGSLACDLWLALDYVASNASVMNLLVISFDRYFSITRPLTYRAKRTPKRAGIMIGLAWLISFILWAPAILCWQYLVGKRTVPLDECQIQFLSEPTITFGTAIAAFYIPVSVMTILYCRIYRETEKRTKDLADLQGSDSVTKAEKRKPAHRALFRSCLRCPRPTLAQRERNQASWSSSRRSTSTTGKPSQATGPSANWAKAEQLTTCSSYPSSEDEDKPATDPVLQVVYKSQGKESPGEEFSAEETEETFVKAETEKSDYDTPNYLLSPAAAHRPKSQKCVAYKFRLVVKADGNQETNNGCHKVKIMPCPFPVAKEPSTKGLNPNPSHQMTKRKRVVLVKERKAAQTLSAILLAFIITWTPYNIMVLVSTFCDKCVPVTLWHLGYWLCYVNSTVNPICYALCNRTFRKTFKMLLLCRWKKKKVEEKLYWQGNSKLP
Chain of RNA-editing ligase 1, mitochondrial (P86926 whole entry): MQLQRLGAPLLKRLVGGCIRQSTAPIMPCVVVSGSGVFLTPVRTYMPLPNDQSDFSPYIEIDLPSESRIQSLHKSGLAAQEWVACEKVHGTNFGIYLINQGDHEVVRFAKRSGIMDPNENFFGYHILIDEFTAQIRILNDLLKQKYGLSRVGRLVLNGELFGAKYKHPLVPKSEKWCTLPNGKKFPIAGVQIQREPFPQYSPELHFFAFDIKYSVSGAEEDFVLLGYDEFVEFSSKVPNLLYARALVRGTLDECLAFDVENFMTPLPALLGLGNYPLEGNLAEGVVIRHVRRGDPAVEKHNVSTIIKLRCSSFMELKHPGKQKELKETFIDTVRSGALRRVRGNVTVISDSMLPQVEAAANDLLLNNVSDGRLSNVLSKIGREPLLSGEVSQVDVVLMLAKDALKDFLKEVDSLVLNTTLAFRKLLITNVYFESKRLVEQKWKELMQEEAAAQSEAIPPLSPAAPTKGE

Turning to `O=C(C1CCN(c2ccc(Cl)cn2)CC1)N(CC1CC1)c1ccc(Cl)cc1`, the concentration for half-maximal inhibition (IC50) at Vasopressin V1b receptor was > 50 µM (active); in assay [1], 0.04 µM (active); at Vasopressin V2 receptor, > 50 µM (inactive); in assay [3], > 50 µM (inactive). In addition, in [2], the CC50 was > 25 µM (inactive).
For the compound `CCCNC(=O)N(C)C[C@@H]1Oc2ncc(C#CC3CCCCC3)cc2C(=O)N([C@H](C)CO)C[C@@H]1C`, the AC50 in assay [4] is 59.7 µM (active).
As to `CCN(C(=O)c1cc(COc2cccc(C(C)=O)c2)on1)C(C)c1ccccn1` (stereo not drawn), the IC50 is 5.55 µM (active) in assay [5] and 6.84 µM (active) in assay [6].
For `Cc1noc(C)c1S(=O)(=O)N(C)C[C@@H]1OCCCC[C@@H](C)Oc2ccc(N(C)C)cc2C(=O)N([C@@H](C)CO)C[C@H]1C`, in assay [7], the AC50 is 10.6 µM (active).
Consider `COc1cccc(C#Cc2ccc([C@H]3[C@H](CO)N4C(=O)CN(C(=O)Cc5ccccc5)C[C@@H]34)cc2)c1`, for which, in assay [8], the concentration at half-maximal activity (AC50) was 10.5 µM (active).
Regarding `O=C(/C=C/c1ccc(F)cc1)N1CCN(S(=O)(=O)c2cccs2)CC1`, in [9], the IC50 was 0.081 µM (active).
Regarding `COC(=O)C1=C(C)N(Cc2cccc(C(F)(F)F)c2)C(NCc2ccc3c(c2)OCO3)=NC1c1ccccc1C(F)(F)F` (stereo not drawn), in [10], the IC50 is > 96.6 µM (inactive).
With `COc1ccc(NC(=O)N2CCC3(CC2)CN(C(C)=O)[C@@H](CO)c2[nH]c4cc(OC)ccc4c23)cc1`, the AC50 in assay [11] was 1.73 µM (active).
